Measured values published in patent US4053603A, “Benzylisoquinoline derivatives, and use as anti-arrhythmic drugs” (Astra Pharmaceutical Products, Inc., priority 1976, dated 1977).
Several values for one entry are separate records, joined by “and”; a condition that tells them apart may be missing. Identical values can stand only once. Entries after “also recorded” stand apart in the source; their conditions may differ. Like-named read-outs stand apart in the source and are kept apart here.

What was measured:
mice [1] = assay: central nervous system toxicity observation in mice (ataxia, convulsions, loss of righting reflex, death); assay type: in vivo, mouse (female Swiss albino, Ham/ICR); details: for Toxicity: Death (number of mice) / Toxicity: Ataxia (number of mice) / Toxicity: Con. (Convulsions) (number of mice) / Toxicity: LRR (Loss of righting reflex) (number of mice): 100 mg/kg s.c., 10 mice; for Toxicity: Ataxia (number of mice) / Toxicity: Con. (Convulsions) (number of mice) / Toxicity: LRR (Loss of righting reflex) (number of mice): 20 min observation; for toxicity (in words): mice
Experimental: (§1) Ventricular fibrillation was produced in female Swiss albino mice (Ham/ICR weighing 18-25g.) essentially according to the method described by Lawson in J. Pharm, Exp. Therap. 160, 22 (1968).
(§2) For initial evaluation of antiarrhythmic activity and toxicity of test compounds, a dose of 100 mg/kg (calculated for the base form, 1% solution in 0.9% saline, adjusted to pH 6-7) was administered subcutaneously to a group of 10 non-fasted, randomly selected mice. […] After 20 minutes they were exposed to chloroform vapors and tested for protection against fibrillation.

[2] = test system: chloroform-induced ventricular fibrillation; assay: protection against chloroform-induced ventricular fibrillation in mice; assay type: in vivo, mouse (female Swiss albino, Ham/ICR); details: for relative Potency (molar basis): ED50^-1 in mmol/kg, standardized to compound 1 = 1; for ED50: Mus musculus, sc, read-out: ED50 for protecting against fibrillation; for antiarrhythmic activity (in words): chloroform fibrillation
Experimental: as §1
The mice were placed individually into a 2,000 ml. beaker with cotton and 50 ml. of chloroform. Immediately after cessation of respiration the mouse was removed from the beaker, the thorax opened and the heart examined for the presence or absence of ventricular fibrillation. Each heart was stimulated by touching with forceps, and the nature of the cardiac rhythm was noted and confirmed by electrocardiographic recordings. The heart was considered to be fibrillating if fine tremulous movements were present on the surface of the ventricle and persisted for at least five seconds after the mechanical stimulus. Ventricular fibrillation was considered absent in those animals in which coordinated ventricular activity was evident following such procedures.
as §2
For determination of ED50 and relative potency of the compounds, three log-spaced doses of drug were selected to give a low, intermediate, and high degree of protection against fibrillation. Each dose was administered to 10 mice.
The data obtained from the three point assay was computer-analyzed using Berkson's minimum logit chi square analysis. The program was designed to give ED50 values with 95 percent Fieller limits.

[3] = test system: ventricular arrhythmias in coronary ligated dogs; assay: coronary ligated dogs, antiarrhythmic effect and toxicity, intravenous infusion (Harris procedure); assay type: in vivo, dog; details: for Mean Arterial Blood Pressure, values after administration / Ventricular Rate, values after administration: i.v. infusion 0.5 mg/kg/minute
Experimental: (§3) Further confirmation of the superiority of the secondary amine compound was provided by comparison of the secondary and tertiary amines in tests on coronary ligated dogs. The tests were conducted in accordance with the procedure of Harris given in Circulation, 1, 1318, 1950. The drugs were administered by the intravenous route by infusion at a dosage of 0.5 mg./kg./minute, in a volume of 0.97 ml./minute and a concentration of 5.2-4.3 mg/ml. The animals were weighed and the solutions prepared on the day of the experiment.

heart = details: cited from earlier work
central nervous system = details: metabolite of lidocaine, high doses of lidocaine; cited from earlier work
mice [4] = assay: central nervous system toxicity observation in mice (ataxia, convulsions, loss of righting reflex, death); assay type: in vivo, mouse (female Swiss albino, Ham/ICR); details: 138 mg/kg s.c., 10 mice
[5] = coronary ligated dogs, antiarrhythmic effect and toxicity, intravenous infusion (Harris procedure); assay type: in vivo, dog; details: dog, in vivo, iv
Experimental: as §3

[6] = mice, three log-spaced doses, 10 mice each, 95% Fieller limits in brackets

Structure (SMILES)	Toxicity: Death (number of mice) (mice [1])	Toxicity: Ataxia (number of mice) (mice [1])	Toxicity: Con. (Convulsions) (number of mice) (mice [1])	Toxicity: LRR (Loss of righting reflex) (number of mice) (mice [1])	relative Potency (molar basis) [2]	ED50 [2, 6] [mg/kg]	antiarrhythmic activity (in words) ([2]; mice)	toxicity (in words) (mice [1])	other results
CCN(CC)CC(=O)Nc1cc(OC)c(OC)cc1Cc1nccc2ccccc12 [Compound 6]	0	7	0	0					
CCNCC(=O)Nc1c(Cc2nccc3ccccc23)ccc(OC)c1OC [Compound 4, 1-(2-[2-ethylamino-acetyl]amino-3,4-dimethoxybenzyl)isoquinoline]	0	0	0	0	3	54	markedly higher antiarrhythmic potency than both its tertiary amine congener, compound 3, and lidocaine		abolishing severe arrhythmias (in words) ([3]; coronary ligated dogs, i.v.): effective in abolishing severe arrhythmias; central nervous system and cardiovascular toxicity at effective doses (in words) ([3]; coronary ligated dogs, i.v.): free from indications of central nervous system and cardiovascular toxicity; dose producing toxicity ([3]; dog, i.v. infusion): (c); Mean Arterial Blood Pressure, values after administration ([3]; dog): 125 and 85; Ventricular Rate, values after administration ([3]; dog): 147 and 123
CCN(CC)CC(=O)Nc1c(C)cccc1C [Lidocaine, 2-diethylamino-2',6'-acetoxylidide, reference compound]	0						strong antiarrhythmic activity		ED50 [2]: 62 mg/kg; antiarrhythmic effectiveness (in words) (heart; intravenous and intramuscular): proved effective as an antiarrhythmic drug administered both intravenously and intramuscularly
CCNCC(=O)Nc1c(C)cccc1C [monoethylglycinexylidide]									contribution to convulsive symptoms of CNS toxicity (in words) (central nervous system): appears to be the metabolite contributing to the production of the convulsive symptoms of central nervous system toxicity with high doses of lidocaine
CCN(CC)CC(=O)Nc1c(CC2c3ccccc3CCN2C)ccc(OC)c1OC (stereo not drawn) [Compound 7]					1	160	essentially the same protection	comparable toxicity characteristics, as compound 1	Toxicity: Ataxia (number of mice) (mice [4]): 0; Toxicity: Con. (Convulsions) (number of mice) (mice [4]): 0; Toxicity: Death (number of mice) (mice [4]): 0; Toxicity: LRR (Loss of righting reflex) (number of mice) (mice [4]): 0
COc1ccc(Cc2nccc3cc(OC)c(OC)cc23)cc1OC [Papaverine, reference compound]	0	2	0	0			only little antiarrhythmic activity	some evidence of toxicity	cardiac effect / arrhythmia at clinical doses (in words) (heart; background, clinical use): doses required were also found to cause dangerous arrhythmias by depression of A-V and intraventricular conduction
COc1ccc(Cc2nccc3ccccc23)c(NC(=O)C(C)N)c1OC (stereo not drawn) [Compound 5]	0	0	0	0	1	257	did not show any outstanding properties		
CCN(CC)CC(=O)Nc1cc(OC)c(OC)cc1Cc1nccc2cc(OC)c(OC)cc12 [Compound 1]	0	0	0	0		211	increased the antiarrhythmic activity	decreased the central nervous system toxicity	
CCN(CC)CC(=O)Nc1c(Cc2nccc3ccccc23)ccc(OC)c1OC [Compound 3]	0	0	0	0	1	146	greater antiarrhythmic activity	lower toxicity	abolishing severe arrhythmias (in words) ([3]; coronary ligated dogs, i.v.): effective in abolishing severe arrhythmias; Mean Arterial Blood Pressure, values after administration ([3]; dog): 100 and 90; Ventricular Rate, values after administration ([3]; dog): 153 and 135; Dose Producing Toxicity (profound head tremors) ([3]; dog, in vivo, iv): 6.25 mg/kg; dose producing toxicity ([5]; Dose Producing Toxicity (convulsion)): 15.8 mg/kg; dose producing toxicity ([5]; Dose Producing Toxicity (profound head tremors)): 12.5 mg/kg
CCNCC(=O)Nc1cc(OC)c(OC)cc1Cc1nccc2cc(OC)c(OC)cc12 [Compound 2]	0	9	0	0	1	142	comparable protection against fibrillation at the same test dose	toxicity symptoms; also recorded: higher toxicity	
